Test results reported in PubChem BioAssay (NCI).
Values joined by “and” are separate entries in the source; they are usually repeats but may differ in a detail not shown here. Identical values can stand only once.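 48-hour exposure; five concentrations; linearly interpolated endpoints. Abbreviation: GI50, concentration required for 50% inhibition of growth. The concentration for full growth arrest is given as TGI.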

Legend:
Experiment in all cases: NCI anticancer screen, dose series, 48 h
A498 renal = tested on: A498 renal
ACHN renal = tested on: ACHN renal
BT-549 breast = tested on: BT-549 breast
CAKI-1 renal = tested on: CAKI-1 renal
M14 melanoma = tested on: M14 melanoma
NCI/ADR-RES ovarian = tested on: NCI/ADR-RES ovarian
SF-268 CNS = tested on: SF-268 CNS
SR leukemia = tested on: SR leukemia
TK-10 renal = tested on: TK-10 renal
U251 CNS = tested on: U251 CNS

| Compound | GI50 (A498 renal) [µM] | TGI (A498 renal) [µM] | GI50 (ACHN renal) | TGI (ACHN renal) | GI50 (BT-549 breast) | TGI (BT-549 breast) | GI50 (CAKI-1 renal) [µM] | TGI (CAKI-1 renal) [µM] | GI50 (M14 melanoma) | TGI (M14 melanoma) | GI50 (NCI/ADR-RES ovarian) | TGI (NCI/ADR-RES ovarian) | GI50 (SF-268 CNS) | TGI (SF-268 CNS) | GI50 (SR leukemia) | TGI (SR leukemia) [µM] | GI50 (TK-10 renal) | TGI (TK-10 renal) | GI50 (U251 CNS) | TGI (U251 CNS) |
| --- | --- | --- | --- | --- | --- | --- | --- | --- | --- | --- | --- | --- | --- | --- | --- | --- | --- | --- | --- | --- |
| O=C(CCCN1CCOCC1)Nc1ccc(Cn2nnc3c2C(=O)c2nnn(Cc4ccc(NC(=O)CCCN5CCOCC5)cc4)c2C3=O)cc1 | > 100 | > 100 | > 100 µM | > 100 µM | 4.68 µM | 18.4 µM | > 100 | > 100 | 4.59 µM | 43.6 µM | > 100 µM | > 100 µM | 3.21 µM | 12.1 µM | 2.05 µM | 7.86 | > 100 µM | > 100 µM | 1.95 µM | 3.74 µM |
| O=C(O)CCC(=O)c1ccc2ccc3cccc4ccc1c2c34 |  | > 100 |  | > 100 µM |  | > 100 µM |  | > 100 |  | > 100 µM |  | > 100 µM |  | > 100 µM |  | > 100 |  | > 100 µM |  | > 100 µM |
| CC/C=C\C/C=C\C[C@H](O)C/C=C1/C(=O)C=C[C@@H]1C/C=C\CCCC(=O)O | 16 | 31.1 | 4.84 µM | 18.5 µM | 2.96 µM | 9.1 µM | 6.56 | 21.4 | 2.82 µM | 12 µM | 3.24 µM | > 100 µM | 5.2 µM | 34 µM | 2.46 µM | 16.7 | 8.06 µM | 21.1 µM | 3.54 µM | 12.2 µM |
| O=C([O][Hg][CH2]C1COC([CH2][Hg][O]C(=O)c2ccccc2)CO1)c1ccccc1 (stereo not drawn) | 18.8 | 33.1 | 8.92 µM and 1.67 µM | 20.7 µM and 3.08 µM | 7.71 µM and 1.69 µM | 20.4 µM and 3.27 µM | 3.38 | 6.76 | 8.68 µM and 2.52 µM | 19.8 µM and 4.89 µM | 10.9 µM and 1.74 µM | 28.9 µM and 4.76 µM | 17.9 µM and 3.51 µM | 34 µM and 15.5 µM | 2.83 µM and 1.65 µM | > 22.6 | 10.5 µM and 1.85 µM | 19 µM and 3.33 µM | 4.46 µM and 13.5 µM | 10.8 µM and 27 µM |
| CC(=O)OCC(=O)O[C@@H]1C[C@]2(C(C)C)O[C@@]1(C)[C@@H]1CC[C@@H](C)[C@H]1[C@@H]2OC(=O)/C=C/c1ccccc1 | < 0.0399 | 0.472 | 0.0316 µM | 12.5 µM | 0.0987 µM | 7 µM | 0.0244 | 0.125 | 26.3 µM | > 100 µM | 0.143 µM | 27.5 µM | 2.65 µM | 62.2 µM | 12.2 µM | > 95.9 | 15.5 µM | 39.7 µM | 16.7 µM | 50.3 µM |
| CN1CCN(Cc2ccc(NC(=O)c3cncc(C#Cc4cncc5ncccc45)c3)cc2C(F)(F)F)CC1 | 0.323 | 3.43 | 1.36 µM | 10.5 µM | 7.9 µM | 20.4 µM | 4.74 | 16.4 | 0.961 µM | 5.09 µM | 5.34 µM | 18.9 µM | 3.99 µM | 17.6 µM | 3.23 µM | 34.6 | 4.18 µM | 15.4 µM | 9.49 µM | 21.8 µM |
| O=C(Nc1cccc(Oc2nnc(Cl)c3ccccc23)c1)Nc1ccc(Cl)c(C(F)(F)F)c1 | 0.275 | 1.7 | 0.711 µM | 3.8 µM | 0.674 µM | 3.07 µM | 0.832 | 6.5 | 0.707 µM | 3.16 µM | 0.926 µM | 9.95 µM | 0.793 µM | 5.5 µM | 0.321 µM | 1.42 | 2.32 µM | 6.55 µM | 1.31 µM | 3.93 µM |
| N#Cc1ccc(N2Cc3ccccc3OC3=C2C(=O)c2c(O)ccc(O)c2C3=O)cc1 | 1.79 | 4.13 | 0.0547 µM | 0.16 µM | 0.572 µM | 1.26 µM | 0.0992 | 0.366 | 0.209 µM | 0.496 µM | 0.611 µM | 6.8 µM | 0.598 µM | 1.72 µM | 0.0563 µM |  | 0.118 µM | 0.265 µM | 0.514 µM | 1.71 µM |
| O=C(CN1CCN(c2ccc(Cl)cc2)CC1)N1CCN(c2nnc(-c3ccc(Cl)cc3)c(-c3ccc(Cl)cc3)n2)CC1 | 43.1 | > 100 | 31.5 µM | > 100 µM | 28.7 µM | > 100 µM | 52.6 | > 100 | 28.2 µM | > 100 µM | 34 µM | > 100 µM | 34 µM | > 100 µM | 10.1 µM | 53.9 | 26.2 µM | > 100 µM | 41.7 µM | > 100 µM |
| CCN1C(=O)NC(=O)C(C)(N2C(=O)c3c(F)c(F)c(F)c(F)c3C2=O)C1=O (stereo not drawn) | 17.7 | 32.9 | 2.03 µM | 3.94 µM | 3.82 µM | 13.3 µM | 1.94 | 4.86 | 3.16 µM | 10.7 µM | 3.6 µM | 18.2 µM | 2.6 µM | 7.43 µM | 0.444 µM | 2.22 | 3.72 µM | 18.6 µM | 1.93 µM | 4.04 µM |
| CN(C)c1ncnc2c1nnn2C1OC(CO)C(O)C1O (stereo not drawn) | 0.442 | > 100 | 0.141 µM | > 54 µM | 1.09 µM | > 100 µM | 0.066 | 8.77 | 0.0515 µM | 1.14 µM | 0.233 µM | > 100 µM | 0.479 µM | > 100 µM | 0.393 µM | 7.64 | 0.25 µM | > 100 µM | 1.6 µM | > 100 µM |
| O=C(Nc1ccc(CN2CCOCC2)cc1)c1[nH]ncc1Nc1ncnc2sccc12 | 0.0363 | 0.461 |  |  | 0.896 µM | 5.88 µM | 0.477 | > 100 | 0.56 µM | 13 µM | 0.578 µM | > 100 µM | 0.595 µM | 5.6 µM | 0.261 µM | 0.989 | 1.64 µM | > 100 µM | 0.281 µM | 13.2 µM |
| COc1cccc2c1-c1c(c3ccc([N+](=O)[O-])cc3c(=O)n1CCCCl)C2=O | 17.4 | > 50 |  |  | 17.1 µM | > 50 µM | 1.13 | 24.1 | 8.57 µM | > 50 µM | > 50 µM | > 50 µM | 0.00993 µM | 3.96 µM | 0.202 µM | > 50 | 11.8 µM | 38.9 µM |  |  |
